Measured values published in US8980888B2, “Pyrazole derivative” (Mochida Pharmaceutical Co., Ltd., priority 2013, dated 2015).

Biological target: T1, Human PDE10 (Homo sapiens, UniProt Q9Y233)
T1 construct: purchased BPA Bioscience (so in the source)
Assay: Human PDE10 inhibitory effect (IMAP TR-FRET enzyme inhibition assay)
Format: biochemical
Settings: PDE10 inhibitory activity, cAMP substrate
Experimental: (Evaluation of Enzyme Inhibitory Activity: Human PDE10 Inhibitory Effect)
IMAP TR-FRET Phosphodiersterase Evaluation Assay Kit (Molecular Device) was used for the measurement. Ten μL of a diluted test compound having each concentration and 5 μL of the enzyme PDE10 (BPA Bioscience) that had been diluted to 2 ng/mL with 1×IMAP Reaction Buffer (prepared with 5× included with the kit, 10 mM Tris-HCl, pH=7.2, 10 mM MgCl2, 0.05% NaN3, and 0.1% BSA) containing 0.1% BSA were added to a 384-well plate (Corning). The obtained mixture was then pre-incubated at room temperature for 5 minutes. Thereafter, 5 μL of cAMP substrate solution which was included with the kit and diluted to 400 nM with 1×IMAP Reaction Buffer containing 0.1% BSA, was added to the reaction solution, and the obtained mixture was reacted at room temperature for 60 minutes. Thereafter, 60 μL of an IMAP TR-FRET Binding solution included with the kit was further added to the reaction solution, and the obtained mixture was then left for 3 hours or more. Subsequently, using ARVO SX (PerkinElmer), the fluorescent intensity of Terbium (Emission=490 nm) and TR-FRET (Emission=520 nm) in the reaction solution were measured at an excitation wavelength of 340 nm, so as to calculate the amount of the generated 5′-AMP. The count of a well to which a solvent had been added instead of the test compound was set at 0%, and the count of a well to which the enzyme PDE10 had not been added was set at 100%. Thus, the inhibitory activity of each test compound was calculated.
The PDE10 inhibitory activity of the test compound was indicated with an IC50 value. […] The test compounds are shown in Table 3 (Table 3-1 and Table 3-2).

T1 sequence (Q9Y233 whole entry): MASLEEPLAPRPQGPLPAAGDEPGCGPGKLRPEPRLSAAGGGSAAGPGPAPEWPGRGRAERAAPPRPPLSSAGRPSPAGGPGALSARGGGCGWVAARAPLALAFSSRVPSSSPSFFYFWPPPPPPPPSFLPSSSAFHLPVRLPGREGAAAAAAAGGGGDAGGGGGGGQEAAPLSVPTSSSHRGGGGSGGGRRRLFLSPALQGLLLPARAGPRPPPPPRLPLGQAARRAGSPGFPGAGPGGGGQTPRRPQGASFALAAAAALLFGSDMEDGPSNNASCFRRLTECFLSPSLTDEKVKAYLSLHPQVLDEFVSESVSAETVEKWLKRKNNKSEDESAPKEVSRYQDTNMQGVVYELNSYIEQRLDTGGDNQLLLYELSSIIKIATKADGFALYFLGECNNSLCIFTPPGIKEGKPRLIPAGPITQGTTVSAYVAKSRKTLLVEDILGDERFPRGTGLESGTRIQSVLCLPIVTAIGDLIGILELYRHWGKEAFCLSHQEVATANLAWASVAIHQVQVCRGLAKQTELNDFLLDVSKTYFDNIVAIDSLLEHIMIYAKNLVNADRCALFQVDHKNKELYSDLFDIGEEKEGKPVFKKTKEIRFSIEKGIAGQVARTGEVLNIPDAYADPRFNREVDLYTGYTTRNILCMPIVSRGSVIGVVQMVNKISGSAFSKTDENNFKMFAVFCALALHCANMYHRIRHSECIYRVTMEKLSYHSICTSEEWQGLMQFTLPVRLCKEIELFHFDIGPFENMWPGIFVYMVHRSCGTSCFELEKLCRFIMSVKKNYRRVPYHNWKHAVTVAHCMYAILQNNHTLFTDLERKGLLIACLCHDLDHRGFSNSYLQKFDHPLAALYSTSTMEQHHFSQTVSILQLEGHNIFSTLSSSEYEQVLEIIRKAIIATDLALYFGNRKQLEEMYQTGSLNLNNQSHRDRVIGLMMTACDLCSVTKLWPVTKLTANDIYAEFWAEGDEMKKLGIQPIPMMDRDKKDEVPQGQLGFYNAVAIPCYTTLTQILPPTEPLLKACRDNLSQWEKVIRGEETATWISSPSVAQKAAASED

| SMILES | IC50 [nM] |
| --- | --- |
| Cc1ccnc(-c2cnn(C)c2C(=O)Nc2cc3nc(-c4ccccc4)nn3cc2F)c1 [Example 3.5, N-(6-fluoro-2-phenyl-[1,2,4]triazolo[1,5-a]pyridin-7-yl)-1-methyl-4-(4-methylpyridin-2-yl)-1H-pyrazole-5-carboxamide] | < 5 |
| Cn1ncc(-c2cc(F)ccn2)c1C(=O)Nc1cc2nc(-c3ccccc3)nn2cc1F [Example 3.4, N-(6-fluoro-2-phenyl-[1,2,4]triazolo[1,5-a]pyridin-7-yl)-4-(4-fluoropyridin-2-yl)-1-methyl-1H-pyrazole-5-carboxamide] | < 5 |
| Cn1ncc(-c2nc(C(F)(F)F)cs2)c1C(=O)NC1CCn2nc(-c3ccccc3)nc2C1 (centres unmarked) [Example 5.9] | 5 to 100 |
| C[C@H]1CCCN1c1nc2cc(NC(=O)c3c(-c4cccc(C(F)(F)F)n4)cnn3C)ccn2n1 [Example 4.3, (S)-1-methyl-N-(2-(2-methylpyrrolidin-1-yl)-[1,2,4]triazolo[1,5-a]pyridin-7-yl)-4-(6-(trifluoromethyl)pyridin-2-yl)-1H-pyrazole-5-carboxamide] | < 5 |
| CCOCCc1sc(-c2cnn(C)c2C(=O)NC2CCn3nc(-c4ccccc4)nc3C2)nc1C (centres unmarked) [Example 5.11, 4-(5-(2-ethoxyethyl)-4-methylthiazol-2-yl)-1-methyl-N-(2-phenyl-5,6,7,8-tetrahydro-[1,2,4]triazolo[1,5-a]pyridin-7-yl)-1H-pyrazole-5-carboxamide] | 5 to 100 |
| Cc1ccnc(-c2cnn(C)c2C(=O)NC2CCn3cc(-c4cccc(F)c4)nc3C2)n1 (centres unmarked) [Example 2.23, N-(2-(3-fluorophenyl)-5,6,7,8-tetrahydroimidazo[1,2-a]pyridin-7-yl)-1-methyl-4-(4-methylpyrimidin-2-yl)-1H-pyrazole-5-carboxamide] | 5 to 100 |
| COc1ccccc1-c1nc2cc(NC(=O)c3c(-c4nc(C(F)F)c(Cl)s4)cnn3C)cc(Cl)n2n1 [Example 3.21, N-(5-chloro-2-(2-methoxyphenyl)-[1,2,4]triazolo[1,5-a]pyridin-7-yl)-4-(5-chloro-4-(difluoromethyl)thiazol-2-yl)-1-methy 1-1H-pyrazole-5-carboxamide] | 5 to 100 |
| Cc1ccnc(-c2cnn(C)c2C(=O)NC2CCn3nc(-c4ccccc4)nc3C2)c1 (centres unmarked) [Example 5.20, 1-methyl-4-(4-methylpyridin-2-yl)-N-(2-phenyl-5,6,7,8-tetrahydro-[1,2,4]triazolo[1,5-a]pyridin-7-yl)-1H-pyrazole-5-carboxamide] | 5 to 100 |
| Cc1nc(-c2cnn(C)c2C(=O)NC2CCn3nc(-c4ccccc4)nc3C2)c(C(C)O)s1 (centres unmarked) [Example 5.31, 4-(5-(1-hydroxyethyl)-2-methylthiazol-4-yl)-1-methyl-N-(2-phenyl-5,6,7,8-tetrahydro-[1,2,4]triazolo[1,5-a]pyridin-7-yl)-1H-pyrazole-5-carboxamide] | 5 to 100 |
| Cc1csc(-c2cnn(C)c2C(=O)NC2CCn3cc(-c4ccccc4)nc3C2)n1 (centres unmarked) [Example 2.1, 1-methyl-4-(4-methylthiazol-2-yl)-N-(2-phenyl-5,6,7,8-tetrahydroimidazo[1,2-a]pyridin-7-yl)-1H-pyrazole-5-carboxamide] | < 5 |
| Cc1nc(-c2cnn(C)c2C(=O)NC2CCn3cc(-c4ccccc4)nc3C2)sc1C (centres unmarked) [Example 2.2, 4-(4,5-dimethylthiazol-2-yl)-1-methyl-N-(2-phenyl-5,6,7,8-tetrahydroimidazo[1,2-a]pyridin-7-yl)-1H-pyrazole-5-carboxamide] | < 5 |
| Cc1nsc(-c2cnn(C)c2C(=O)NC2CCn3nc(-c4ccccc4)nc3C2)n1 (centres unmarked) [Example 5.15, 1-methyl-4-(3-methyl-1,2,4-thiadiazol-5-yl)-N-(2-phenyl-5,6,7,8-tetrahydro-[1,2,4]triazolo[1,5-a]pyridin-7-yl)-1H-pyrazole-5-carboxamide] | 5 to 100 |
| CC(=O)c1sc(C)nc1-c1cnn(C)c1C(=O)NC1CCn2nc(-c3ccccc3)nc2C1 (centres unmarked) [Example 5.30, 4-(5-acetyl-2-methylthiazol-4-yl)-1-methyl-N-(2-phenyl-5,6,7,8-tetrahydro-[1,2,4]triazolo[1,5-a]pyridin-7-yl)-1H-pyrazole-5-carboxamide] | 5 to 100 |
| Cn1ncc(-c2ncccc2C#N)c1C(=O)NC1CCn2nc(-c3ccccc3)nc2C1 (centres unmarked) [Example 5.27, 4-(3-cyanopyridin-2-yl)-1-methyl-N-(2-phenyl-5,6,7,8-tetrahydro-[1,2,4]triazolo[1,5-a]pyridin-7-yl)-1H-pyrazole-5-carboxamide] | 5 to 100 |
| Cc1cccc(-c2cnn(C)c2C(=O)NC2CCn3nc(-c4ccccc4)nc3C2)n1 (centres unmarked) [Example 5.19, 1-methyl-4-(6-methylpyridin-2-yl)-N-(2-phenyl-5,6,7,8-tetrahydro-[1,2,4]triazolo[1,5-a]pyridin-7-yl)-1H-pyrazole-5-carboxamide] | 5 to 100 |
| Cc1nc(-c2cnn(C)c2C(=O)NC2CCn3nc(-c4ccc(F)cc4)nc3C2)c(C)s1 (centres unmarked) [Example 5.28, 4-(2,5-dimethylthiazol-4-yl)-N-(2-(4-fluorophenyl)-5,6,7,8-tetrahydro-[1,2,4]triazolo[1,5-a]pyridin-7-yl)-1-methyl-1H-pyrazole-5-carboxamide] | 5 to 100 |
| Cn1ncc(-c2cccc(C(F)(F)F)n2)c1C(=O)NC1CCn2nc(-c3ccccc3)nc2C1 (centres unmarked) [Example 5.21, 1-methyl-N-(2-phenyl-5,6,7,8-tetrahydro-[1,2,4]triazolo[1,5-a]pyridin-7-yl)-4-(6-(trifluoromethyl)pyridin-2-yl)-1H-pyrazole-5-carboxamide] | 5 to 100 |

Tested on: apomorphine-induced stereotypy
Assay: not given
Settings: rats; according to U.S. Patent Application No. 2003/0032579; cited from earlier work

| SMILES | apomorphine-induced stereotypy |
| --- | --- |
| COc1ccc(Cc2nccc3cc(OC)c(OC)cc23)cc1OC [papaverine] | decreases |

Tested on: haloperidol-induced catalepsy
Assay: not given
Settings: rat; according to U.S. Patent Application No. 2003/0032579; cited from earlier work

| SMILES | haloperidol-induced catalepsy |
| --- | --- |
| COc1ccc(Cc2nccc3cc(OC)c(OC)cc23)cc1OC [papaverine] | increases |

Tested on: dopamine level in the rat brain
Assay: not given
Settings: according to U.S. Patent Application No. 2003/0032579; cited from earlier work

| SMILES | dopamine level in the rat brain |
| --- | --- |
| COc1ccc(Cc2nccc3cc(OC)c(OC)cc23)cc1OC [papaverine] | decreases |
